Our source for the IC50 values is BindingDB's records for doi:10.1111/cbdd.12356 (Peking University, 2014).

This assay addresses T1, Polyunsaturated fatty acid 5-lipoxygenase (Homo sapiens, UniProt P09917).
T1 sequence (P09917 whole entry): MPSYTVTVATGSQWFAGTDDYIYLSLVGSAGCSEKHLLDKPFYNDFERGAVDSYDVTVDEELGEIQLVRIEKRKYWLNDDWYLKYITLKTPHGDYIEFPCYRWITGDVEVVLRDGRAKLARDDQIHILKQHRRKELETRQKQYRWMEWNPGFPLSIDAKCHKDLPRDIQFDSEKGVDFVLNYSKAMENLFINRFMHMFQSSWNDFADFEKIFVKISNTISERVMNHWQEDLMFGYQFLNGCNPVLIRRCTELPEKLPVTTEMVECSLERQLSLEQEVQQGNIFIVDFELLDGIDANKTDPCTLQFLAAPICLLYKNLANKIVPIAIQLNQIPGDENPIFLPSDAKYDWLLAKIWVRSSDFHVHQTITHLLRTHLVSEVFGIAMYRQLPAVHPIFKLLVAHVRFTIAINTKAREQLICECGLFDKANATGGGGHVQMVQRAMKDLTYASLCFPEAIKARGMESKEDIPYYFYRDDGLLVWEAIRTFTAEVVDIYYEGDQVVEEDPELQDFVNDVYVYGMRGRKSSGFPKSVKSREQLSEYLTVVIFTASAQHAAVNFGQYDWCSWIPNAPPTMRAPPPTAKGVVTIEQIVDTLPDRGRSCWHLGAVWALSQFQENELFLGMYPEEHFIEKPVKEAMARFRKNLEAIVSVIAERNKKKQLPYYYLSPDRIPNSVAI
Briefly: Cell-Free Assay. The protocol: The enzyme activity of 5-LOX was determined fluorescence spectrophotometrically by oxidation of the substrate H2DCFDA to the highly fluorescent 2',7'-dichlorofluorescein product during 5-LOX s catalytic reaction . The reactions were initiated by the addition of AA as substrate and then monitored by excitation at 500 nm and emission at 520 nm utilizing a multiwall fluorometer. Fluorescence signals were recorded for 5 min with a kinetics mode program. Inhibition activities were measured as described previously.
For `O=C(c1[nH]nc2c1CSc1sc(Br)cc1-2)N1CCN(Cc2ccccc2)CC1` [5-(4-benzylpiperazine-1-carbonyl)-11-bromo-8,10-dithia-3,4-diazatricyclo[7.3.0.0 ,⁶]dodeca-1(9),2,5,11-tetraene (7i)], 21 µM corresponded to half-maximal inhibition (IC50).

Turning to `O=C(c1[nH]nc2c1CSc1sc(Br)cc1-2)N1CCN(c2ccccc2F)CC1` [11-bromo-5-[4-(2-fluorophenyl)piperazine-1-carbonyl]-8,10-dithia-3,4-diazatricyclo[7.3.0.0,6]dodeca-1(9),2,5,11-tetraene (7c)], the IC50 – broadly, the midpoint of a concentration-inhibition curve – is 5.7 µM.

For `O=C(c1[nH]nc2c1CSc1sc(Br)cc1-2)N1CCN(c2ccc(OC(F)(F)F)cc2)CC1` [11-bromo-5-{4-[4-(trifluoromethoxy)phenyl]piperazine-1-carbonyl}-8,10-dithia-3,4-diazatricyclo[7.3.0.0 ,⁶]dodeca-1(9),2,5,11-tetraene (7e)], inhibition was half-maximal at 86 µM (IC50).
